Data reported in patent US20250018046A1, “COMPOUNDS FOR TARGETING DEGRADATION OF IRAK4 PROTEINS” (BIOGEN MA INC, priority 2021, published 2025).

target: T1, IRAK4 (Homo sapiens, UniProt Q9NWZ3); assay: IRAK4 degradation assay using the HiBiT Method; type: cell-based; conditions: 293T cells expressing HiBiT-tagged IRAK4; 6-hour incubation; Nano-Glo HiBiT Lytic Assay luminescence
T1 construct: knocking-in a HiBiT fusion tag into the C-terminal of the IRAK4 gene in 293T cells; host or cells: 293T cells, knock-in of HiBiT at the endogenous IRAK4 locus
T1 sequence (Q9NWZ3 1-460): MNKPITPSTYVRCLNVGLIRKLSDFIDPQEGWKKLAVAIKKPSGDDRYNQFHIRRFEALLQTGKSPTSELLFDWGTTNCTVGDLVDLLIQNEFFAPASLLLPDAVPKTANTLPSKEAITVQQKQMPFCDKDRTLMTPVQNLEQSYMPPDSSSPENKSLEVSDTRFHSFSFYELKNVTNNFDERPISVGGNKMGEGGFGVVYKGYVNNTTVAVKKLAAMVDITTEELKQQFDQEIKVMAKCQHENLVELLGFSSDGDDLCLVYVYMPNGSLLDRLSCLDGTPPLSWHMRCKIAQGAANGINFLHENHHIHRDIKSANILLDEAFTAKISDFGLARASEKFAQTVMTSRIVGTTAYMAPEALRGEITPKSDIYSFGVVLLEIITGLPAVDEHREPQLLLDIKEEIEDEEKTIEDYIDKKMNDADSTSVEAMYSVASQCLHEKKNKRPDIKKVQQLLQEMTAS
Procedure, shortened: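 HEK293T cells with HiBiT knocked into the IRAK4 C-terminus, 10,000 cells per well, treated with an 11-point half-log series […] in duplicate for 6 hours at 37° C., 5% CO2. Remaining IRAK4 quantified by Nano-Glo HiBiT lytic luminescence against DMSO controls.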

DC50, 10 to 100 nM:
CC(C)Oc1cc2nc(CC3CCN(C(=O)CN4CCC(c5ccc(C6CCC(=O)NC6=O)cc5)CC4)CC3)cn2cc1NC(=O)c1cccc(C(F)(F)F)n1 (stereo not drawn) [Example 79, N-[2-[[1-[2-[4-[4-(2,6-dioxo-3-piperidyl)phenyl]-1-piperidyl]acetyl]-4-piperidyl]methyl]-7-isopropoxy-imidazo[1,2-a]pyridin-6-yl]-6-(trifluoromethyl)pyridine-2-carboxamide]
Cc1cc(NC2CCC(=O)NC2=O)ccc1C1CCN(C(=O)CN2CCC(c3cn4cc(NC(=O)c5cccc(C(F)(F)F)n5)c(OC(C)C)cc4n3)CC2)CC1 (stereo not drawn) [Example 87, N-[2-[1-[2-[4-[4-[(2,6-dioxo-3-piperidyl)amino]-2-methyl-phenyl]-1-piperidyl]-2-oxo-ethyl]-4-piperidyl]-7-isopropoxy-imidazo[1,2-a]pyridin-6-yl]-6-(trifluoromethyl) pyridine-2-carboxamide]

DC50, 100 to 500 nM:
CC(C)Oc1cc2nc(C3CCCN(C(=O)CN4CCC(c5ccc(C6CCC(=O)NC6=O)cc5)CC4)C3)cn2cc1NC(=O)c1cccc(C(F)(F)F)n1 (stereo not drawn) [Example 76, N-[2-[1-[2-[4-[4-(2,6-dioxo-3-piperidyl)phenyl]-1-piperidyl]acetyl]-3-piperidyl]-7-isopropoxy-imidazo[1,2-a]pyridin-6-yl]-6-(trifluoromethyl)pyridine-2-carboxamide]
CC(C)Oc1cc2nc(C3CN(C(=O)CN4CCC(c5ccc(C6CCC(=O)NC6=O)cc5)CC4)C3)cn2cc1NC(=O)c1cccc(C(F)(F)F)n1 (stereo not drawn) [Example 77, N-[2-[1-[2-[4-[4-(2,6-dioxo-3-piperidyl)phenyl]-1-piperidyl]acetyl]azetidin-3-yl]-7-isopropoxy-imidazo[1,2-a]pyridin-6-yl]-6-(trifluoromethyl)pyridine-2-carboxamide]
CC(C)Oc1cc2nc(C3CCN(C(=O)C4CC5(CCCN5C(=O)c5ccc(OC6CCC(=O)NC6=O)cc5)C4)CC3)cn2cc1NC(=O)c1cccc(C(F)(F)F)n1 (stereo not drawn) [Example 80, N-[2-[1-[5-[4-[(2,6-dioxo-3-piperidyl)oxy]benzoyl]-5-azaspiro[3.4]octane-2-carbonyl]-4-piperidyl]-7-isopropoxy-imidazo[1,2-a]pyridin-6-yl]-6-(trifluoromethyl)pyridine-2-carboxamide]
CC(C)Oc1cc2nc(C3CCN(C(=O)CCC4CCN(C(=O)c5ccc(OC6CCC(=O)NC6=O)cc5)CC4)CC3)cn2cc1NC(=O)c1cccc(C(F)(F)F)n1 (stereo not drawn) [Example 81, N-[2-[1-[3-[1-[4-[(2,6-dioxo-3-piperidyl)oxy]benzoyl]-4-piperidyl]propanoyl]-4-piperidyl]-7-isopropoxy-imidazo[1,2-a]pyridin-6-yl]-6-(trifluoromethyl)pyridine-2-carboxamide]
CC(C)Oc1cc2nc(C3CCN(C(=O)c4ccccc4CNC(=O)c4ccc(OC5CCC(=O)NC5=O)cc4)CC3)cn2cc1NC(=O)c1cccc(C(F)(F)F)n1 (stereo not drawn) [Example 82, N-[2-[1-[2-[[[4-[(2,6-dioxo-3-piperidyl)oxy]benzoyl]amino]methyl]benzoyl]-4-piperidyl]-7-isopropoxy-imidazo[1,2-a]pyridin-6-yl]-6-(trifluoromethyl)pyridine-2-carboxamide]
CC(C)Oc1cc2nc(C3CCN(C(=O)C4CCCC5(CCN(C(=O)c6ccc(OC7CCC(=O)NC7=O)cc6)CC5)O4)CC3)cn2cc1NC(=O)c1cccc(C(F)(F)F)n1 (stereo not drawn) [Example 83, N-[2-[1-[9-[4-[(2,6-dioxo-3-piperidyl)oxy]benzoyl]-1-oxa-9-azaspiro[5.5]undecane-2-carbonyl]-4-piperidyl]-7-isopropoxy-imidazo[1,2-a]pyridin-6-yl]-6-(trifluoromethyl) pyridine-2-carboxamide]
Cc1cc(N2CCN(C(=O)CN3CCC(c4cn5cc(NC(=O)c6cccc(C(F)(F)F)n6)c(OC(C)C)cc5n4)CC3)CC2)ccc1NC1CCC(=O)NC1=O (stereo not drawn) [Example 85, N-[2-[1-[2-[4-[4-[(2,6-dioxo-3-piperidyl)amino]-3-methyl-phenyl]piperazin-1-yl]-2-oxo-ethyl]-4-piperidyl]-7-isopropoxy-imidazo[1,2-a]pyridin-6-yl]-6-(trifluoromethyl) pyridine-2-carboxamide]
CC(C)Oc1cc2nc(C3CCN(CC(=O)N4CCC(Oc5ccc(NC6CCC(=O)NC6=O)cc5)CC4)CC3)cn2cc1NC(=O)c1cccc(C(F)(F)F)n1 (stereo not drawn) [Example 86, N-[2-[1-[2-[4-[4-[(2,6-dioxo-3-piperidyl)amino]phenoxy]-1-piperidyl]-2-oxo-ethyl]-4-piperidyl]-7-isopropoxy-imidazo[1,2-a]pyridin-6-yl]-6-(trifluoromethyl)pyridine-2-carboxamide]

DC50, 500 to 1000 nM:
CC(C)Oc1cc2nc([C@@H](Cc3ccccc3)NC(=O)CN3CCC(c4ccc(C5CCC(=O)NC5=O)cc4)CC3)cn2cc1NC(=O)c1cccc(C(F)(F)F)n1 (stereo partly drawn) [Example 78, N-[2-[(1R)-1-[[2-[4-[4-(2,6-dioxo-3-piperidyl)phenyl]-1-piperidyl]acetyl]amino]-2-phenyl-ethyl]-7-isopropoxy-imidazo[1,2-a]pyridin-6-yl]-6-(trifluoromethyl)pyridine-2-carboxamide]
CC(C)Oc1cc2nc(C3CCN(C(=O)C4CCN(C(=O)c5ccc(OC6CCC(=O)NC6=O)cc5)CC4)CC3)cn2cc1NC(=O)c1cccc(C(F)(F)F)n1 (stereo not drawn) [Example 84, N-[2-[1-[1-[4-[(2,6-dioxo-3-piperidyl)oxy]benzoyl]piperidine-4-carbonyl]-4-piperidyl]-7-isopropoxy-imidazo[1,2-a]pyridin-6-yl]-6-(trifluoromethyl)pyridine-2-carboxamide]
